Here are results for six compounds from patent publication US5880258A (dated 1999).

This assay deals with thrombin (Homo sapiens, UniProt P00734). The experiment in a line: anti-thrombin activity; clotting assay (coagulation time with fibrinogen as substrate). It is filed as biochemical. Also noted: 100 μl of human-thrombin prepared at 10 NIH units/ml in aforesaid buffer. The note with it: for Potency: calculated using the definition that HV-1 (54-65) potency is 1; for IC50: concentration corresponding to 50 thrombin units, human-thrombin 10 NIH units/ml, human-fibrinogen 6 mg/ml, read-out: 50% Inhibition Concentration (converted). How it is done: Measurement of anti-thrombin activity was done by looking at anti-coagulant activity as an index using fibrinogen as the substrate. That is, the compounds were dossolved in 200 μl of 0.1 mM Tris-HCl buffer (pH7.5) containing 0.1% polyethyleneglycol-6000, 100 μl of human-thrombin prepared at 10 NIH units/ml in aforesaid buffer, were added 200 μl of human-fibrinogen (Sigma) prepared at 6 mg/ml in aforesaid tris-hydrochloride buffer were added, and the coagulation time of the reaction mixtures were measured. For measuring of coagulation times, coagulation time analyzer (Amelung KC10A) was used. Obtained values were converted into units by using a previously prepared thrombin standard curve. Graphs were prepared by plotting the converted values on the vertical axis, and the concentrations of the compounds on the horizontal axis. In the graphs, the thrombin unit was defined as 100 at a compound concentration of 0. The concentration of compounds corresponding to 50 units were defined as 50% inhibitory concentrations of compounds.

*1 amine or outer side, *2 acyl side, *3 side chain or, on linkers, in order; H or OH if unused. Where a SMILES comes first, the peptide text is derived from it. [ ]: non-standard residue; d: D form. sY = N[C@@H](Cc1ccc(OS(=O)(=O)O)cc1)C(=O)O; Suc = O=C(CCC(=O)[*:2])[*:1]; βAla = NCCC(=O)O

Regarding `CC[C@H](C)[C@H](NC(=O)[C@@H]1CCCN1C(=O)[C@H](CCC(=O)O)NC(=O)[C@H](Cc1ccccc1)NC(=O)[C@H](CC(=O)O)NC(=O)CNC(=O)CCC(=O)O)C(=O)N1CCC[C@H]1C(=O)N[C@@H](Cc1ccc(OS(=O)(=O)O)cc1)C(=O)N[C@@H](Cc1ccc(OS(=O)(=O)O)cc1)C(=O)N[C@@H](Cc1ccc(OS(=O)(=O)O)cc1)C(=O)N[C@@H](CC(C)C)C(=O)N[C@@H](CCC(N)=O)C(=O)O` [Sulfated form of (E), Suc--Gly--Asp--Phe--Glu--Pro--Ile--Pro--Tyr(SO3 H)--Tyr(SO3 H)--Tyr(SO3 H)--Leu--Gln--OH] (Suc-GDFEPIP[sY][sY][sY]LQ-OH), the Potency is given as 44.41 and the IC50 is 80.7 nM.

In the case of `CC[C@H](C)[C@H](NC(=O)[C@@H]1CCCN1C(=O)[C@H](CCC(=O)O)NC(=O)[C@H](Cc1ccccc1)NC(=O)[C@H](CC(=O)O)NC(=O)CCC(=O)O)C(=O)N1CCC[C@H]1C(=O)N[C@@H](CCC(=O)O)C(=O)N[C@@H](Cc1ccc(OS(=O)(=O)O)cc1)C(=O)N[C@@H](Cc1ccc(OS(=O)(=O)O)cc1)C(=O)N[C@@H](CC(C)C)C(=O)N[C@@H](CCC(N)=O)C(=O)O` [Sulfated form of (F), Suc--Asp--Phe--Glu--Pro--Ile--Pro--Glu--Tyr(SO3 H)--Tyr(SO3 H)--Leu--Gln--OH] (Suc-DFEPIPE[sY][sY]LQ-OH), the Potency was 1.32 and the IC50 was 3000 nM.

Take `CC[C@H](C)[C@H](NC(=O)[C@@H]1CCCN1C(=O)[C@H](CCC(=O)O)NC(=O)[C@H](Cc1ccccc1)NC(=O)CCC(=O)O)C(=O)N1CCC[C@H]1C(=O)N[C@@H](CCC(=O)O)C(=O)N[C@@H](Cc1ccc(OS(=O)(=O)O)cc1)C(=O)N[C@@H](Cc1ccc(OS(=O)(=O)O)cc1)C(=O)N[C@@H](CC(C)C)C(=O)N[C@@H](CCC(N)=O)C(=O)O` [Sulfated form of (G), Suc--Phe--Glu--Pro--Ile--Pro--Glu--Tyr(SO3 H)--Tyr(SO3 H)--Leu--Gln--OH] (Suc-FEPIPE[sY][sY]LQ-OH): the Potency is recorded as 108.87 and the IC50 was 38.9 nM.

With `CC[C@H](C)[C@H](NC(=O)[C@@H]1CCCN1C(=O)[C@H](CCC(=O)O)NC(=O)CCC(=O)O)C(=O)N1CCC[C@H]1C(=O)N[C@@H](CCC(=O)O)C(=O)N[C@@H](Cc1ccc(OS(=O)(=O)O)cc1)C(=O)N[C@@H](Cc1ccc(OS(=O)(=O)O)cc1)C(=O)N[C@@H](CC(C)C)C(=O)N[C@@H](CCC(N)=O)C(=O)O` [Sulfated form of (H), Suc--Glu--Pro--Ile--Pro--Glu--Tyr(SO3 H)--Tyr(SO3 H)--Leu--Gln--OH] (Suc-EPIPE[sY][sY]LQ-OH), the Potency is less than 0.05 and the IC50 was greater than 142000 nM.

As for `CC[C@H](C)[C@H](NC(=O)[C@@H]1CCCN1C(=O)[C@H](CCC(=O)O)NC(=O)[C@H](Cc1ccccc1)NC(=O)CCC(=O)O)C(=O)N1CCC[C@H]1C(=O)N[C@@H](CCC(=O)O)C(=O)N[C@@H](Cc1ccc(OS(=O)(=O)O)cc1)C(=O)N[C@@H](Cc1ccc(OS(=O)(=O)O)cc1)C(=O)O` [Sulfated form of (I), Suc--Phe--Glu--Pro--Ile--Pro--Glu--Tyr(SO3 H)--Tyr(SO3 H)--OH] (Suc-FEPIPE[sY][sY]-OH), the Potency is 1.62 and the IC50 is 3100 nM.

Consider `CC[C@H](C)[C@H](NC(=O)[C@@H]1CCCN1C(=O)[C@H](CCC(=O)O)NC(=O)[C@H](Cc1ccccc1)NC(=O)CCC(=O)O)C(=O)N1CCC[C@H]1C(=O)N[C@@H](CCC(=O)O)C(=O)N[C@@H](Cc1ccc(OS(=O)(=O)O)cc1)C(=O)N[C@@H](Cc1ccc(OS(=O)(=O)O)cc1)C(=O)NCCC(=O)O` [Sulfated form of (K), Suc--Phe--Glu--Pro--Ile--Pro--Glu--Tyr(SO3 H)--Tyr(SO3 H)--NH(CH2)2 COOH] (Suc-FEPIPE[sY][sY][βAla]-OH), for which the Potency is 1.02 and the IC50 was 4650 nM.
